Our source for the IC50 and Activity values is ChEMBL document CHEMBL2074145, “Active transport of fluorescent P-glycoprotein substrates: evaluation as markers and interaction with inhibitors” (Biochem Biophys Res Commun, 2001).

The target in data set [1] is T1, ATP-dependent translocase ABCB1 (Homo sapiens, UniProt P08183).
Description: TP_TRANSPORTER: inhibition of LDS-751 efflux in NIH-3T3-G185 cells
Data set [2] deals with T1, ATP-dependent translocase ABCB1. The source holds these as a separate data set.
Description: TP_TRANSPORTER: inhibition of Daunorubicin efflux in NIH-3T3-G185 cells
For data set [3] the target is unchanged. This is another data set of the same source.
Description: TP_TRANSPORTER: inhibition of Rhodamine 123 efflux in NIH-3T3-G185 cells
Data set [4] shares this target. The source holds these as a separate data set.
For data set [5] the target is unchanged. The source holds these as a separate data set.
Description: TP_TRANSPORTER: inhibition of Fluo-3-AM efflux in NIH-3T3-G185 cells
Data set [6] shares this target. The source holds these as a separate data set.
Description: TP_TRANSPORTER: inhibition of Calcein-AM efflux in NIH-3T3-G185 cells
The target is the same in data set [7]. The source holds these as a separate data set.
Description: TP_TRANSPORTER: inhibition of Tetramethylrosamine efflux in NIH-3T3-G185 cells
For data set [8] the target is unchanged. Description: TP_TRANSPORTER: inhibition of Daunorubicin, LDS-751 and Rhodamine 123 efflux in NIH-3T3-G185 cells. Format: functional, cell-based. The settings on record: mouse.

T1 sequence (P08183 whole entry): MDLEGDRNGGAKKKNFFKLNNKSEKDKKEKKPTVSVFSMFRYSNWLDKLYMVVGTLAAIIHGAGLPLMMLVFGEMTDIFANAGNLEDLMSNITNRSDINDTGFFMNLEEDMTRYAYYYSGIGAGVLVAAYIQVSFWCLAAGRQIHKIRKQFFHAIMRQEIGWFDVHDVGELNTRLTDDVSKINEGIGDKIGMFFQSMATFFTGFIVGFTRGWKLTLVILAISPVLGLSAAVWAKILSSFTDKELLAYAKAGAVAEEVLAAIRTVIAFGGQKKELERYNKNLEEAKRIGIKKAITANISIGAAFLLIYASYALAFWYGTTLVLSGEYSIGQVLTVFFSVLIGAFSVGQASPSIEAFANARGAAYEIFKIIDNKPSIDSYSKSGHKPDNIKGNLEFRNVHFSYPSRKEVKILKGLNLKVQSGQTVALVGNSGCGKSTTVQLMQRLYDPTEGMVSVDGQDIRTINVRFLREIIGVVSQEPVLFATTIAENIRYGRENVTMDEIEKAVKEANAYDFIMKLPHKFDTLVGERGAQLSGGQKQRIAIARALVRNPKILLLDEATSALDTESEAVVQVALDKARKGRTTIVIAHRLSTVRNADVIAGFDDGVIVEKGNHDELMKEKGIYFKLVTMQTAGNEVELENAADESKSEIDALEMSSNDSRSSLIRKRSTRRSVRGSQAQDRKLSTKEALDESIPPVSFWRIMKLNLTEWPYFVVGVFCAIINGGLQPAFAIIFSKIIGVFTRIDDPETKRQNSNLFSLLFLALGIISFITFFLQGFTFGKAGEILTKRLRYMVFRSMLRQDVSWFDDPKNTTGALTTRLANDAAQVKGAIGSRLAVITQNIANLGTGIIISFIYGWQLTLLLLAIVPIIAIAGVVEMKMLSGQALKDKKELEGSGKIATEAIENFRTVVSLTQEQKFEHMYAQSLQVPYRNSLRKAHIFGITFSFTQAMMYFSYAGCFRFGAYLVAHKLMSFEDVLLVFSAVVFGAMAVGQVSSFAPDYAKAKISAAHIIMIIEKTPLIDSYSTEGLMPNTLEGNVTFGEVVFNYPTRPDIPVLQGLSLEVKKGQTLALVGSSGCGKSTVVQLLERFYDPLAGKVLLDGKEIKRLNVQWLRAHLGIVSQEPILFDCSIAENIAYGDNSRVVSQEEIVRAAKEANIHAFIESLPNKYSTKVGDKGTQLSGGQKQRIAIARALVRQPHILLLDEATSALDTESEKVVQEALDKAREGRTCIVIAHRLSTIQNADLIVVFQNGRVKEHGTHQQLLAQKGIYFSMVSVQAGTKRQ

As usually defined, the IC50 is the concentration needed to halve the response being measured. A low value points to higher potency. Consider `COc1ccccc1OCCNCC(O)COc1cccc2[nH]c3ccccc3c12` (stereo unspecified) [CARVEDILOL], for which the IC50 in data set [1] turned out to be 6 µM; in data set [2] it was 4.6 µM; in data set [3], 6.6 µM.
With `c1ccc([P+](c2ccccc2)(c2ccccc2)c2ccccc2)cc1` [TETRAPHENYLPHOSPHONIUM], the IC50 in data set [1] was 427 µM; in data set [2], 490 µM.
With `COc1ccc(CCNCCCC(C#N)(c2cc(OC)c(OC)c(OC)c2)C(C)C)cc1OC` (stereo unspecified) [N-Norgallopamil], the 50% inhibitory concentration (IC50) in data set [1] is 4.9 µM; in data set [2] it was 3.6 µM; in data set [3] it was 8.6 µM.
As for `CC[C@H]1CN2CCc3cc(OC)c(OC)cc3[C@@H]2C[C@@H]1C[C@H]1NCCc2cc(OC)c(OC)cc21` [EMETINE], the 50% inhibitory concentration (IC50) in data set [1] stood at 2.4 µM; in data set [2] it was 9.2 µM; in data set [4], 116 µM; in data set [3], 9.6 µM; in data set [5], 130 µM; in data set [6], 35.1 µM. Further, the IC50 in data set [7] worked out at 207 µM.
In the case of `CC[C@H]1OC(=O)[C@H](C)[C@@H](O[C@H]2C[C@@](C)(OC)[C@@H](O)[C@H](C)O2)[C@H](C)[C@@H](O[C@@H]2O[C@H](C)C[C@H](N(C)C)[C@H]2O)[C@](C)(OC)C[C@@H](C)C(=O)[C@H](C)[C@@H](O)[C@]1(C)O` [CLARITHROMYCIN], the 50% inhibitory concentration (IC50) in data set [1] is 7.2 µM; in data set [2], 3.8 µM; in data set [4], 50.2 µM; in data set [3] it was 15.1 µM; in data set [5], 86.7 µM; in data set [6] it was 56.1 µM. The molecule further came in with a half-inhibitory concentration (IC50) in data set [7] of 23.8 µM.
As for `COC(=O)[C@H]1[C@H]2C[C@@H]3c4[nH]c5cc(OC)ccc5c4CCN3C[C@H]2C[C@@H](OC(=O)c2cc(OC)c(OC)c(OC)c2)[C@@H]1OC` [RESERPINE], the IC50 in data set [1] turned out to be 2.1 µM; in data set [2] it was 0.5 µM; in data set [4], 6.1 µM; in data set [3], 3.9 µM; in data set [5] it was 2.1 µM; in data set [6], 2.6 µM. In data set [7], this molecule came in with a half-maximal inhibitory concentration (IC50) of 5.3 µM.
Regarding `CC(C)/N=c1\cc2n(-c3ccc(Cl)cc3)c3ccccc3nc-2cc1Nc1ccc(Cl)cc1` [CLOFAZIMINE], the half-maximal inhibitory concentration (IC50) in data set [1] is 1.1 µM; in data set [2] it was 0.6 µM; in data set [3], 1 µM.
With `C=C[C@@]1(C)CC(=O)[C@]2(O)[C@@]3(C)[C@@H](O)CCC(C)(C)[C@@H]3[C@H](O)[C@H](OC(C)=O)[C@@]2(C)O1` [COLFORSIN], the IC50 in data set [1] worked out at 188 µM; in data set [2], 80.2 µM.
Turning to `OCCN1CCN(CCCN2c3ccccc3Sc3ccc(C(F)(F)F)cc32)CC1` [FLUPHENAZINE], the IC50 in data set [1] is 5.7 µM; in data set [2], 6.5 µM; in data set [3] it was 10.4 µM.
For `CC(=O)O[C@H]1C(=O)[C@@]2(C)[C@H]([C@H](OC(=O)c3ccccc3)[C@]3(O)C[C@H](OC(=O)[C@H](O)[C@@H](NC(=O)c4ccccc4)c4ccccc4)C(C)=C1C3(C)C)[C@]1(OC(C)=O)CO[C@@H]1C[C@@H]2O` [PACLITAXEL], in that order: 53.9 µM, 54 µM and 70.2 µM.
As to `COc1ccc2c(c1)c(CC(=O)O)c(C)n2C(=O)c1ccc(Cl)cc1` [INDOMETHACIN], in data set [8], the Activity entry was “is not an inhibitor [-]”.
